Measurements: ChEMBL document CHEMBL1149100, “New 2,4-diamino-5-(2',5'-substituted benzyl)pyrimidines as potential drugs against opportunistic infections of AIDS and other immune disorders. Synthesis and species-dependent antifolate activity” (J Med Chem, 2004)
Values after ≈ are worked out from the molar mass of the structure shown.

Tests used:
Mycobacterium avium [1] = test: Minimum inhibitory concentration required against Mycobacterium avium isolate from patient number MAC100; type: functional
Mycobacterium avium [2] = test: Minimum inhibitory concentration required against Mycobacterium avium isolate from patient number MAC108; type: functional
Mycobacterium avium [3] = test: Minimum inhibitory concentration required against Mycobacterium avium isolate from patient number MAC109; type: functional
Mycobacterium avium [4] = test: Minimum inhibitory concentration required against Mycobacterium avium isolate from patient number MAC16; type: functional
Mycobacterium avium [5] = test: Concentration of compound required against Mycobacterium avium; Range is 2-32; type: functional, organism-based
Mycobacterium avium [6] = test: Minimum inhibitory concentration required for 50 percent inhibition of Mycobacterium avium isolate; type: functional
Mycobacterium avium [7] = test: Minimum inhibitory concentration required for 90 percent inhibition of Mycobacterium avium isolate; type: functional
Mycobacterium avium [8] = test: Minimum inhibitory concentration required against Mycobacterium avium isolate from patient number MAC101; type: functional
Mycobacterium avium [9] = test: Minimum inhibitory concentration required against Mycobacterium avium isolate from patient number MAC116; type: functional
[10] = biological target: T1, Bifunctional dihydrofolate reductase-thymidylate synthase (Toxoplasma gondii, UniProt Q07422)
T1 sequence (Q07422 whole entry): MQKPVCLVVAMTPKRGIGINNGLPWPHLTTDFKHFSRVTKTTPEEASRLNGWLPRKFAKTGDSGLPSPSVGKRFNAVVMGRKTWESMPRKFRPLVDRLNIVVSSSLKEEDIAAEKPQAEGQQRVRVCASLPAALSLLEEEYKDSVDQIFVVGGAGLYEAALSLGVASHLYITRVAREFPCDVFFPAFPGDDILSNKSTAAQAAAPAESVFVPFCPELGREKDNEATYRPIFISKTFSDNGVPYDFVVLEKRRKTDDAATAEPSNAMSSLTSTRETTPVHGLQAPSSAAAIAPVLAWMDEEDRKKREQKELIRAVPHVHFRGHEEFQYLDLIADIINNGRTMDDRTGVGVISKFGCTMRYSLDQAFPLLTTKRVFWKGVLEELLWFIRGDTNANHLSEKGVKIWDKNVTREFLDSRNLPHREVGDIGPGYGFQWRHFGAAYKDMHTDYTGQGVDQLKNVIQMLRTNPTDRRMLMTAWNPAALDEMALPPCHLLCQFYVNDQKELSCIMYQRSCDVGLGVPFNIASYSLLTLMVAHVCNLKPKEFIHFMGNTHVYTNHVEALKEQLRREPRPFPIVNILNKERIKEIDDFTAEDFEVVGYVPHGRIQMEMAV

Dihydrofolate reductase [11] = biological target: T2, Dihydrofolate reductase (Rattus norvegicus, UniProt Q920D2)
T2 sequence (Q920D2 whole entry): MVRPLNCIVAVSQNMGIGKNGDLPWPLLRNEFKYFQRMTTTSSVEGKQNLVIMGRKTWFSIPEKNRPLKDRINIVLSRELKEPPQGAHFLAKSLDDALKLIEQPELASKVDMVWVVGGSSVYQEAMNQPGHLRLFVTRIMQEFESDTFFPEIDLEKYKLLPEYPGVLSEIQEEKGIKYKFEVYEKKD
Description: Inhibitory concentration against dihydrofolate reductase of rat liver

Dihydrofolate reductase [12] = biological target: T3, Dihydrofolate reductase (Mycobacterium avium, UniProt O30463)
T3 sequence (O30463 whole entry): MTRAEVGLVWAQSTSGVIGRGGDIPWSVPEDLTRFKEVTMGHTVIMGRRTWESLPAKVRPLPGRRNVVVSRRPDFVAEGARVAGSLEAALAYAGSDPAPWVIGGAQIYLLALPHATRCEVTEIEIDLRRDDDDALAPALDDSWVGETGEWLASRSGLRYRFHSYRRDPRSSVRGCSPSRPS
Description: Inhibitory concentration against dihydrofolate reductase of Mycobacterium avium

Dihydrofolate reductase [13] = biological target: T4, Dihydrofolate reductase (Pneumocystis carinii, UniProt P16184)
T4 sequence (P16184 whole entry): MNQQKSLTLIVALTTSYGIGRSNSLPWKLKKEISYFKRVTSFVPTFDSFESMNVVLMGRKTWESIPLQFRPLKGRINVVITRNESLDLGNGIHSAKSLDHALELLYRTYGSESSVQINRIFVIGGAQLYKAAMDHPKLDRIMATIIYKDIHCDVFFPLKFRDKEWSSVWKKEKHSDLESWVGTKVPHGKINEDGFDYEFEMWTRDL
Description: Inhibitory concentration against dihydrofolate reductace enzyme of Pneumocystis carinii

Mycobacterium avium [14] = test: Concentration of compound required against Mycobacterium avium; Range is 4-32; type: functional, organism-based
Mycobacterium avium [15] = test: Concentration of compound required against Mycobacterium avium; Range is 2-16 ug/mL; type: functional, organism-based
Mycobacterium avium [16] = test: Concentration of compound required against Mycobacterium aviumRange is 2-32; type: functional, organism-based

| Compound | MIC (Mycobacterium avium [1]) [µg/mL] | MIC (Mycobacterium avium [2]) [µg/mL] | MIC (Mycobacterium avium [3]) [µg/mL] | MIC (Mycobacterium avium [4]) [µg/mL] | Concentration (Mycobacterium avium [5]) [µg/mL] | MIC50 (Mycobacterium avium [6]) [µg/mL] | MIC90 (Mycobacterium avium [7]) [µg/mL] | MIC (Mycobacterium avium [8]) [µg/mL] | MIC (Mycobacterium avium [9]) [µg/mL] | IC50 [10] [nM] | IC50 (Dihydrofolate reductase [11]) [nM] | IC50 (Dihydrofolate reductase [12]) [nM] | IC50 (Dihydrofolate reductase [13]) [nM] | Concentration (Mycobacterium avium [14]) [µg/mL] | Concentration (Mycobacterium avium [15]) [µg/mL] | Concentration (Mycobacterium avium [16]) [µg/mL] |
| --- | --- | --- | --- | --- | --- | --- | --- | --- | --- | --- | --- | --- | --- | --- | --- | --- |
| COc1ccc(OCCCCCCCC(=O)O)cc1Cc1cnc(N)nc1N | 8 (≈ 20.6 µM) | 32 (≈ 82.4 µM) | 2 (≈ 5.15 µM) | 2 (≈ 5.15 µM) | 32 | 4 (≈ 10.3 µM) | 8 (≈ 20.6 µM) | 4 (≈ 10.3 µM) |  |  |  |  |  |  |  |  |
| COc1ccc(OCc2ccc(C(=O)O)cc2)cc1Cc1cnc(N)nc1N | > 32 | > 32 | > 32 | > 32 |  |  |  | > 32 |  |  |  |  |  |  |  |  |
| COc1ccc(CCCCC(=O)O)cc1Cc1cnc(N)nc1N | > 32 | > 32 | > 32 |  |  |  |  | > 32 | > 32 |  |  |  |  |  |  |  |
| COc1ccc(CCCCCC(=O)O)cc1Cc1cnc(N)nc1N | 32 (≈ 92.9 µM) | > 32 | 32 (≈ 92.9 µM) | 32 (≈ 92.9 µM) |  |  |  | 16 (≈ 46.5 µM) |  |  |  |  |  |  |  |  |
| COc1ccc(CCc2ccc(C(=O)O)cc2)cc1Cc1cnc(N)nc1N |  |  |  |  |  |  |  |  |  | 1500 | 13000 | 25 | 7100 |  |  |  |
| COc1ccc(OCCCCC(=O)O)cc1Cc1cnc(N)nc1N | 16 (≈ 46.2 µM) | > 32 | 16 (≈ 46.2 µM) | 16 (≈ 46.2 µM) |  | 16 (≈ 46.2 µM) | 32 (≈ 92.4 µM) | 16 (≈ 46.2 µM) |  |  |  |  |  |  |  |  |
| COc1ccc(C#CCCCC(=O)O)cc1Cc1cnc(N)nc1N | 8 (≈ 23.5 µM) | 32 (≈ 94 µM) | 16 (≈ 47 µM) | 8 (≈ 23.5 µM) |  | 8 (≈ 23.5 µM) | 16 (≈ 47 µM) | 4 (≈ 11.8 µM) |  |  |  |  |  | 32 |  |  |
| COc1ccc(CCCOc2ccccc2C(=O)O)cc1Cc1cnc(N)nc1N |  |  |  |  |  |  |  |  |  | 710 | 25000 | 310 | 7800 |  |  |  |
| COc1ccc(/C=C/COc2ccccc2C(=O)O)cc1Cc1cnc(N)nc1N |  |  |  |  |  |  |  |  |  | 2500 | 6400 | 380 | 8600 |  |  |  |
| COc1ccc(C#CCCCCC(=O)O)cc1Cc1cnc(N)nc1N | 4 (≈ 11.3 µM) | > 32 | 4 (≈ 11.3 µM) | 2 (≈ 5.64 µM) | 32 | 8 (≈ 22.6 µM) | 16 (≈ 45.1 µM) | 2 (≈ 5.64 µM) |  |  |  |  |  |  |  |  |
| CCCCCCOc1ccc(OC)c(Cc2cnc(N)nc2N)c1 | 32 (≈ 96.8 µM) | 32 (≈ 96.8 µM) | 32 (≈ 96.8 µM) | 32 (≈ 96.8 µM) |  |  |  | 32 (≈ 96.8 µM) |  |  |  |  |  |  |  |  |
| COc1ccc(C#Cc2ccccc2C(=O)O)cc1Cc1cnc(N)nc1N | > 64 | > 64 | > 64 |  |  |  |  | > 64 | > 64 | 1900 | 25000 | 100 | 4100 |  |  |  |
| COc1ccc(CCCCCCC(=O)O)cc1Cc1cnc(N)nc1N | > 32 | > 32 | 32 (≈ 89.3 µM) | 16 (≈ 44.6 µM) |  |  |  | 32 (≈ 89.3 µM) |  |  |  |  |  |  |  |  |
| CCCCCCCOc1ccc(OC)c(Cc2cnc(N)nc2N)c1 | 8 (≈ 23.2 µM) | 8 (≈ 23.2 µM) | 8 (≈ 23.2 µM) | 8 (≈ 23.2 µM) |  | 8 (≈ 23.2 µM) | 8 (≈ 23.2 µM) | 4 (≈ 11.6 µM) |  |  |  |  |  |  | 16 |  |
| COc1ccc(C#Cc2ccc(C(=O)O)cc2)cc1Cc1cnc(N)nc1N | > 64 | > 64 | > 64 | > 64 |  |  |  | > 64 |  | 340 | 8200 | 3.7 | 1300 |  |  |  |
| COc1ccc(OCCCC(=O)O)cc1Cc1cnc(N)nc1N | 16 (≈ 48.1 µM) | 16 (≈ 48.1 µM) | 32 (≈ 96.3 µM) | 32 (≈ 96.3 µM) |  |  |  | 16 (≈ 48.1 µM) |  |  |  |  |  |  |  |  |
| COc1ccc(C#CCOc2ccccc2C(=O)O)cc1Cc1cnc(N)nc1N | > 32 | > 32 | > 32 | > 32 |  |  |  | > 32 |  |  |  |  |  |  |  |  |
| COc1ccc(C#CCOc2cccc(C(=O)O)c2)cc1Cc1cnc(N)nc1N | > 32 | > 32 | > 32 | > 32 |  |  |  | > 32 |  |  |  |  |  |  |  |  |
| COc1ccc(OCc2cccc(C(=O)O)c2)cc1Cc1cnc(N)nc1N | > 32 | > 32 | > 32 | > 32 |  |  |  | > 32 |  |  |  |  |  |  |  |  |
| COc1ccc(C#CCCC(=O)O)cc1Cc1cnc(N)nc1N | 8 (≈ 24.5 µM) | 16 (≈ 49 µM) | 16 (≈ 49 µM) | 16 (≈ 49 µM) |  | 8 (≈ 24.5 µM) | 16 (≈ 49 µM) | 8 (≈ 24.5 µM) |  |  |  |  |  | 32 |  |  |
| COc1ccc(OCCCCCCC(=O)O)cc1Cc1cnc(N)nc1N | 16 (≈ 42.7 µM) | > 32 | 8 (≈ 21.4 µM) | 16 (≈ 42.7 µM) |  | 4 (≈ 10.7 µM) | 32 (≈ 85.5 µM) | 8 (≈ 21.4 µM) |  |  |  |  |  |  |  | 32 |
| Cc1ccc(Cl)cc1Cc1cnc2nc(N)nc(N)c2c1C |  |  |  |  |  |  |  |  |  |  |  | 0.19 |  |  |  |  |
| COc1ccc(OCCCCCC(=O)O)cc1Cc1cnc(N)nc1N | 16 (≈ 44.4 µM) | 32 (≈ 88.8 µM) | 8 (≈ 22.2 µM) | 8 (≈ 22.2 µM) |  | 4 (≈ 11.1 µM) | 32 (≈ 88.8 µM) | 8 (≈ 22.2 µM) |  |  |  |  |  | 32 |  |  |
| COc1ccc(C#Cc2cccc(C(=O)O)c2)cc1Cc1cnc(N)nc1N | > 64 | > 64 | > 64 | > 64 |  |  |  | > 64 |  | 5.5 | 650 | 1.5 | 23 |  |  |  |
| COc1ccc(CCCOc2cccc(C(=O)O)c2)cc1Cc1cnc(N)nc1N |  |  |  |  |  |  |  |  |  | 210 | 4000 | 25 | 1100 |  |  |  |
| COc1ccc(OCCCCCCCCC(=O)O)cc1Cc1cnc(N)nc1N | 8 (≈ 19.9 µM) | > 32 | 4 (≈ 9.94 µM) | 2 (≈ 4.97 µM) |  | 4 (≈ 9.94 µM) | 8 (≈ 19.9 µM) | 2 (≈ 4.97 µM) |  |  |  |  |  |  | 16 |  |
| COc1cc(Cc2cnc3nc(N)nc(N)c3c2C)cc(OC)c1 |  |  |  |  |  |  |  |  |  |  |  | 0.64 |  |  |  |  |
